Test results reported in patent publication US6984656B2, “Core modified porphyrins” (priority 2001, dated 2006).

How the values were obtained:
Colo-26 cells = assay: Dark and light-induced toxicity toward Colo-26 cells in culture; assay type: cell-based, murine
Protocol: In order to compare relative phototoxicity, the core-modified porphyrins of Table 1 were evaluated in culture for dark and light-induced toxicities toward Colo-26 cells, a murine colon carcinoma cell line.

[1] = Quantum yield for the generation of singlet oxygen; assay type: physicochemical; conditions: aqueous solution
[2] = Rate of photobleaching in phosphate-buffered saline; assay type: physicochemical; conditions: PBS; 570-750 nm light at 500 mW cm^−2; constant initial absorbance
From the text: One limitation of PDT dosimetry is the rate of photobleaching of the photosensitizer, which can be problematic with Photofrin® and even more problematic with the bacteriochlorins and the chlorins (such as HPPH).

[3] = tested on: R3230AC rat mammary adenocarcinoma cells; assay: Phototoxicity toward R3230AC cells in culture; assay type: cell-based; conditions: 10 μM, 24 h; 570-800 nm light, 0.9 J cm^−2; 24 h post-irradiation
Protocol: Similar results were obtained with R3230AC rat mammary adenocarcinoma cells in vitro. […] Light-treated cells and dark controls were incubated for 24 h and cell survival was determined. The surviving fraction, 24 h post-irradiation, is shown graphically in FIG. 4c.

MCF-7 cells = assay: Photosensitizer uptake in cultured MCF-7 cells by fluorescence; assay type: cell-based; conditions: 10 μM and 100 μM, 24 h
Protocol: To establish baseline fluorescence, control cells incubated with MEM not containing either photosensitizer were used. […] A time course to determine when the fluorescence approached its maximum was performed for DH-82 and Photofrin®.
To determine the final intracellular concentrations of each sensitizer, cells in 96-well plates were incubated with sensitizer for 24 h. Detection of fluorescence in sensitizer-treated cells was made directly in the wells of the 96-well plate using the appropriate excitation and emission wavelengths.
Photosensitizer uptake experiments are conducted with fluorescent sensitizers. First, cells will be removed from 100-mm dishes by trypsinization (see above) and seeded on 96-well plates at 5×10^4 cells/well in 200 μL of MEM. […] To establish baseline fluorescence, control cells incubated with MEM not containing any photosensitizer are used. […] Fluorescence of the cells is determined using a Spectramax Gemini spectrofluorimeter (Molecular Devices, Sunnyvale, Calif.). Sensitizers will be compared according to the rate at which the fluorescence approached its maximum final emission per 10^5 cells as well as by the final sensitizer concentrations in cells. The fluorescence values calculated for 10^5 cells will be compared to a standard curve of fluorescence obtained from known concentrations of each sensitizer.

R3230AC cells = assay: Viability of R3230AC cells in the dark and after light; assay type: cell-based, rat; conditions: 10^−6 M; 24 h after 0.9 J cm^−2 of 590-750 nm light
cytochrome c oxidase = assay: Whole cell mitochondrial cytochrome c oxidase activity in R3230AC cells; assay type: cell-based, rat
Protocol: In parallel experiments, mitochondrial cytochrome c oxidase activity was determined after exposure of R3230AC cells to the same porphyrins either in the dark or 24 h after light exposure (FIG. 8b). […] In contrast, MA-99 inhibited whole cell cytochrome c oxidase activity by 60% after a 24-h incubation period in R3230AC cells. […] Cytochrome c oxidase activity in R3230AC cells irradiated in the presence of MA-99 was inhibited by 95%, […] in enzyme activity compared to that obtained from cells incubated with MA-99, but not exposed to light.
Determination of the effects of dyes on intracellular mitochondrial cytochrome c oxidase are performed on cultured R3230AC cells. Cultures are seeded at 1×10^5 cells/well on 12-well plates in 1.0 mL MEM (described above). Twenty-four h later, sensitizers are added at concentrations ranging from 10^−4 to 10^−6 M. Cells are incubated in the dark with the sensitizers in MEM for 24 h in a 37° C. incubator. […] Cytochrome c oxidase is measured as above after cell suspensions are thawed and sonicated on ice after 30 s at 10 s bursts using a Branson probe sonifier set at a power of 2. The whole-cell lysate is added to the cytochrome c reaction mixture and results are expressed as the amount of cytochrome c oxidase activity per 10^5 cells.

[4] = Tissue distribution by fluorescence in tumor-bearing BALB/c mice
Protocol: At various times after sensitizer administration, animals were sacrificed and sensitizer levels determined by direct extraction. In tumor-bearing animals (BALB/c mice or female Fischer rats), the concentration of sensitizer was determined by fluorescence spectroscopy where possible. At various time points post-injection of 5 μmol/kg of sensitizer or 90% of the LD10 (whichever is smaller), tissues were removed, weighed, homogenized, and frozen in liquid nitrogen (3-5 animals per time point). The homogenate, after thawing, was taken up in Solvable and the emission from sensitizer was quantified in terms of ng of sensitizer/mg of protein. With non-fluorescent sensitizers, sensitizer content was quantified spectrophotometrically. Distribution ratios were expressed as the uptake or retention of sensitizer in tumor relative to various normal tissues. Intensified digital fluorescence microscopy and/or confocal microscopy on frozen sections of the tumors, which were prepared from samples specified for this purpose, enabled us to assess intratumor sensitizer distributions.

BALB/c mice = assay: Preliminary toxicity, single intravenous injection in BALB/c mice
[5] = BALB/c mice with Colo-26 tumors, DH-82 5 mg/kg, MA-99 2.5 mg/kg

For `O=C([O-])COc1ccc(-c2c3nc(c(-c4ccc(F)cc4)c4ccc(s4)c(-c4ccc(F)cc4)c4nc(c(-c5ccc(OCC(=O)[O-])cc5)c5ccc2s5)C=C4)C=C3)cc1.[Na+].[Na+]` [MA-99], the EC50 (Colo-26 cells; 4 J cm^−2 of 590-800 nm light, read-out: EC50 against Colo-26 cells) was 430 nM, the “phototoxicity relative to Photofrin® with laser excitation (FIG. 4a)” value (Colo-26 cells; Colo-26 cells, 694 nm dye laser for DH-82 and MA-99, 630 nm dye laser for Photofrin®) was “significantly greater phototoxicity at lower concentrations than Photofrin®” and the “quantum yield for the generation of singlet oxygen φ(^1O2)” value [1] was 0.71 ± 0.02. The “rate of photobleaching (kbleach)” value [2] was 0.16 ± 0.02 × 10^4 s^−1, the “phototoxicity relative to Photofrin® toward R3230AC cells (surviving fraction, FIG. 4c)” value [3] was “more phototoxic than Photofrin®” and the “final intracellular concentration relative to that for DH-82” value (MCF-7 cells) was “approximately 80%”. The “reduction in cell number after light exposure” value (R3230AC cells) was 40%, the “inhibition of whole cell cytochrome c oxidase activity in the dark” value (cytochrome c oxidase; 24-h incubation, dark) was 60% and the “reduction of cytochrome c oxidase activity after irradiation” value (cytochrome c oxidase; 24 h after 0.9 J cm^−2 of 590-750 nm light, vs control untreated cells) was 95%. For the same molecule, the “concentration in tumor 24 h post-injection” value ([4]; 2.5 mg (3.2 μmol)/kg of MA-99, Colo-26 tumors) was 0.65±0.10 μg/mg of protein, the “increase in photosensitizer uptake in tumor relative to compound 6” value ([4]; 24 h post-injection) was “greater than twenty-fold increase” and the “concentration in skin at 1 h post-injection” value [4, 5] was 0.09±0.04 μg/mg of protein. The “concentration in skin at 24 h post-injection” value [4, 5] was 0.01±0.01 μg/mg of protein, the “concentration in tumor versus other tissues at 24 h post-injection” value ([4]; liver, kidney, lung, heart, spleen, muscle, skin) was “higher in the tumor than in the other tissues examined” and the “gross abnormalities in organs and tissues after sacrifice” value (BALB/c mice; 10 mg/kg i.v., after 90 days) was “no gross abnormalities were noted”. The toxicity and morbidity (BALB/c mice; 10 mg/kg, followed 90 days post-injection, normal vivarium light) was “neither toxicity nor morbidity was observed”.
